Experimental data: patent US20090082400A1, “SOLUBLE PYRONE ANALOGS METHODS AND COMPOSITIONS” (priority 2007, published 2009)
“And” between values parts separate entries of the source, which are not always exact repeats. Equal entries are not always repeated.

Legend:
[1] = test system: rats; experiment: Blood glucose levels in rats co-administered tacrolimus and flavonoid-sulfobutylether-7-β-cyclodextrin; format: in vivo, rat
Method: One set of 5 rats is treated from day 1 to day 25 with inert vehicle 2 intraperitoneally and treated from day 11 to day 25 with inert vehicle 1 intraperitoneally. […] A third set 5 of rats is treated from day 1 to day 25 intraperitoneally with tacrolimus (Prograf®) at 0.5 mg/kg, and treated from day 11 to day 25 with sulfobutylether-7-β-cyclodextrin (Q-Captisol) at 100 mg/kg. A fourth set 5 of rats is treated from day 1 to day 25 intraperitoneally with tacrolimus (Prograft®) at 0.5 mg/kg, and treated from day 11 to day 25 with fisetin-sulfobutylether-7-β-cyclodextrin (Fisetin-Captisol) at 85 mg/kg. The blood glucose level in the rats was measured on days 1, 10, 15, 20, and 25.

[2] = Pharmacokinetic parameters of i.v. tacrolimus in the presence of Q-Captisol in male Lewis rats; format: in vivo; details: rat, whole blood, iv, tacrolimus 1 mg/kg i.v.; for AUC / Cmax / Vd / clearance / half-life: male, Lewis, 1 mg/kg
Method: Male Lewis rats (Charles River Laboratories; 8-9 weeks old; mean weights 282-285 gm) are randomly assigned to treatment groups by a computerized body weight stratification procedure. Quercetin-Sulfobutylether-7-β-cyclodextrin (Q-Captisol) is prepared as a dosing solution using Captisol (B-cyclodextrin-sulfobutyl ether sodium salt; CyDex Inc.) along with 1 molar equivalent of sodium hydroxide. Q-Captisol is administered intraperitoneally (i.p.) at doses of 0, 25, 150, or 300 mg/kg (N=9 rats/dose). Tacrolimus (1 mg/kg i.v.) is dosed at 0.2 ml/kg directly from Prograf 5 mg/ml clinical dosing solutions. […] Whole blood is collected in EDTA tubes from the retro-orbital sinus under 60:40 CO2:O2 anesthesia at 9 time periods using N=3 animals per time period: 5, 15, and 30 min; 1, 2, 3, 6, 8, and 24 hr after administration of tacrolimus. To avoid excessive blood loss from individual animals, 3 blood samples per rat are collected at specified time intervals, so the final samples for analysis contained N=3 blood samples per time period. Whole blood samples are froze on dry ice and stored frozen at −80° C. prior to analysis.
Thawed whole blood (200 μl) is transferred to a separate glass tube with 100 μl of ascomycin (Internal Standard: 100 ng/ml in 10% methanol) and 20 μl of 10% methanol. Samples are treated with 400 μl of 0.1 M zinc sulfate and then 100 μl of acetonitrile to precipitate proteins. Samples are vortexed, then centrifuged at 4000 rpm for 5 min. 500 μl of supernatant is transferred to a clean glass tube containing 1000 μl of water and vortexed thoroughly. Mixtures are loaded onto a 100 mg C18 cartridge (SPE column) preconditioned with 1 ml of methanol, followed by 1 ml of water. The cartridge is washed 2× with 1 ml water, followed by 100 μl methanol. Tacrolimus and Internal Standard are eluted with 500 μl of methanol into an HPLC vial containing 1000 μl of 10 mM ammonium acetate. Samples are vortexed, then centrifuged at 4000 rpm for 10 min. A 10 μl aliquot of the clarified supernatant is injected directly onto LC/MS/MS for analysis. Calibration standards are prepared in blank rat whole blood at 1, 2, 5, 5, 10, 25, 50, 62.5, and 75 ng/ml and processed as described for the samples from rats dosed with tacrolimus.
The tacrolimus concentrations in plasma are determined using validated assay methods via an LC/MS/MS analytical technique. Major pharmacokinetic parameters, including area under the concentration versus time curve from time zero to the time of last measurable concentration (AUCt), area under the concentration versus time curve from time zero to infinite time (AUCinf), maximum observed concentration (Cmax), time to reach maximum observed blood or plasma concentration (Tmax), apparent terminal elimination rate constant (Kcl), clearance (CL), and half-life (T1/2), are determined from the plasma concentration data. […] These changes are believed to be caused by drug re-distribution from non-targeted organs to systemic circulation.

[3] = 5 rats, Prograf 0.5 mg/kg i.p. once daily from Day 1 + Vehicle 1 from Day 11
[4] = rats, Prograf 0.5 mg/kg i.p. + Vehicle 1
[5] = rats, Prograf 0.5 mg/kg i.p. once daily from Day 1 + Vehicle 1 from Day 11
[6] = Q-Captisol Dose 0 mg/kg i.p. 30 min before
[7] = Q-Captisol Dose 25 mg/kg i.p. 30 min before
[8] = Q-Captisol Dose 150 mg/kg i.p. 30 min before
[9] = Q-Captisol Dose 300 mg/kg i.p. 30 min before

With `C=CC[C@@H]1/C=C(\C)C[C@H](C)C[C@H](OC)[C@H]2O[C@@](O)(C(=O)C(=O)N3CCCC[C@H]3C(=O)O[C@H](/C(C)=C/[C@@H]3CC[C@@H](O)[C@H](OC)C3)[C@H](C)[C@@H](O)CC1=O)[C@H](C)C[C@@H]2OC` [tacrolimus] the “Blood glucose Day 1, Mean” value [1, 3] was 1.27 g/L, the “Blood glucose Day 10, Mean” value [1, 3] was 1.49 g/L and the “Blood glucose Day 15, Mean” value [1, 3] was 2.54 g/L. The “Blood glucose Day 20, Mean” value [1, 3] was 2.93 g/L, the “Blood glucose Day 25, Mean” value [1, 3] was 2.55 g/L and the “Blood glucose, Mean change from Day 1, Day 10” value [1, 4] was “+0.22 g/l”. For the same compound, the “Blood glucose, Mean change from Day 1, Day 15” value [1, 4] was “+1.27 g/l”, the “Blood glucose, Mean change from Day 1, Day 20” value [1, 4] was “+1.66 g/l” and the “Blood glucose, Mean change from Day 1, Day 25” value [1, 4] was “+1.28 g/l”. For the same compound, the “Blood glucose, Mean change from all vehicle control, Day 1” value [1, 4] was -0.10 g/L, the “Blood glucose, Mean change from all vehicle control, Day 10” value [1, 4] was “+0.23 g/l” and the “Blood glucose, Mean change from all vehicle control, Day 15” value [1, 4] was “+1.27 g/l”. The “Blood glucose, Mean change from all vehicle control, Day 20” value [1, 4] was “+1.81 g/l”, the “Blood glucose, Mean change from all vehicle control, Day 25” value [1, 4] was “+1.38 g/l” and the “Blood glucose Day 1, individual rats” value [1, 5] was 1.16 g/l (2×) and 1.34 g/l and 1.22 g/l and 1.47 g/l. The “Blood glucose Day 10, individual rats” value [1, 5] was 1.30 g/L and 1.39 g/L and 1.40 g/L and 1.09 g/L and 2.25 g/L, the “Blood glucose Day 15, individual rats” value [1, 5] was 3.72 g/L and 1.67 g/L and 2.31 g/L and 1.97 g/L and 3.02 g/L and the “Blood glucose Day 20, individual rats” value [1, 5] was 2.79 g/L and 3.70 g/L and 2.97 g/L and 2.41 g/L and 2.77 g/L. The “Blood glucose Day 25, individual rats” value [1, 5] was 0.97 g/L and 3.16 g/L and 1.69 g/L and 2.98 g/L and 3.96 g/L, the AUC [2, 6] was 645 ng·h/mL and the Cmax [2, 6] was 418 ng/mL. It also gave a Vd [2, 6] of 18.6 L/kg, a clearance [2, 6] of 22.9 mL/min/kg and a half-life [2, 6] of 9.4 h. It also gave an AUC [2, 7] of 635 ng·h/mL, a Cmax [2, 7] of 426 ng/mL and a Vd [2, 7] of 16 L/kg. It also gave a clearance [2, 7] of 23.3 mL/min/kg, a half-life [2, 7] of 7.9 h and an AUC [2, 8] of 980 ng·h/mL. It also gave a Cmax [2, 8] of 781 ng/mL, a Vd [2, 8] of 10.9 L/kg and a clearance [2, 8] of 15.5 mL/min/kg. For the same compound, the half-life [2, 8] was 8.1 h, the AUC [2, 9] was 1240 ng·h/mL and the Cmax [2, 9] was 877 ng/mL. It also gave a Vd [2, 9] of 8.2 L/kg, a clearance [2, 9] of 12.2 mL/min/kg and a half-life [2, 9] of 7.7 h. It also gave a Tmax [2, 8] of 4.98 min.
